We go through 29 compounds from patent publication US8524745B2 (Allergan, Inc., priority 2011, dated 2013).

The target in this experiment is T1, CCR2 (Homo sapiens, UniProt P41597).
T1 construct: expressed in transfected cells
T1 sequence (P41597 whole entry, species assumed): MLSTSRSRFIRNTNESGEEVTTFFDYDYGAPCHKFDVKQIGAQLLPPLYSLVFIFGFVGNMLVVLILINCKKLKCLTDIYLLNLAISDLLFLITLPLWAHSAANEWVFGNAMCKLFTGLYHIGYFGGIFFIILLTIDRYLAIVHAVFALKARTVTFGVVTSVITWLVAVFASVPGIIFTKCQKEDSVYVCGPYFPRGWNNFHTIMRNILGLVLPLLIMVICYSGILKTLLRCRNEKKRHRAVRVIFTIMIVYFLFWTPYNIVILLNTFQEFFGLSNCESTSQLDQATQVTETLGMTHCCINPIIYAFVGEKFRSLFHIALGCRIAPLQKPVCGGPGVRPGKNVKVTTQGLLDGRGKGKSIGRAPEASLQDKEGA
Kind of experiment: CCR2 calcium activity assay on FLIPR Tetra in HEK-Gqi5 cells stably expressing CCR2. It is filed as cell-based. The method, then: HEK-Gqi5 cells stably expressing CCR2 were cultured in (DMEM high glucose, 10% FBS, 1% PSA, 400 μg/ml geneticin and 50 μg/ml hygromycin. Appropriate positive control chemokines (MCP-1, MIP1A or RANTES) was used as the positive control agonist for screening compound-induced calcium activity assayed on the FLIPR^Tetra. The drug plates were prepared in 384-well microplates using the EP3 and the MuItiPROBE robotic liquid handling systems. Compounds were synthesized and tested for CCR2 activity.
In general, IC50 refers to the concentration that gives 50% inhibition. On to `Cn1sc(=O)c2cc(S(=O)(=O)Nc3cccc4c3OCCO4)ccc21` [N-(2,3-dihydro-1,4-benzodioxin-5-yl)-1-methyl-3-oxo-1,3-dihydro-2,1-benzisothiazole-5-sulfonamide], for which the “CCR2 % ANTAG” value came to 76% and the IC50 is 1450 nM.
Taken in the same sequence, the figures for `CN(C)c1ccc(NS(=O)(=O)c2ccc3c(c2)c(=O)sn3C)c(NS(=O)(=O)c2cccs2)c1` [N-{4-(dimethylamino)-2-[(2-thienylsulfonyl)amino]phenyl}-1-methyl-3-oxo-1,3-dihydro-2,1-benzisothiazole-5-sulfonamide] were 78% and 1230 nM.
Taken in the same sequence, the figures for `CC(C)c1ccc(S(=O)(=O)Nc2ccc(Cl)cc2NS(=O)(=O)c2ccc3c(c2)c(=O)sn3C)cc1` [N-(5-chloro-2-{[(4-isopropylphenyl)sulfonyl]amino}phenyl)-1-methyl-3-oxo-1,3-dihydro-2,1-benzisothiazole-5-sulfonamide] were 94% and 985 nM.
With `Cn1sc(=O)c2cc(S(=O)(=O)NC3CCCN(S(=O)(=O)c4cccs4)C3)ccc21` (centres unmarked) [1-methyl-3-oxo-N-[1-(2-thienylsulfonyl)piperidin-3-yl]-1,3-dihydro-2,1-benzisothiazole-5-sulfonamide], the “CCR2 % ANTAG” value came to 39%.
On to `Cn1cc(S(=O)(=O)Nc2ccccc2NS(=O)(=O)c2ccc3c(c2)c(=O)sn3C)cn1` [1-methyl-N-(2-{[(1-methyl-1H-pyrazol-4-yl)sulfonyl]amino}phenyl)-3-oxo-1,3-dihydro-2,1-benzisothiazole-5-sulfonamide], for which the “CCR2 % ANTAG” value was found to be 60% and the IC50 was 2480 nM.
Taken in the same sequence, the figures for `COC(=O)c1ccc(NS(=O)(=O)c2ccc3c(c2)c(=O)sn3C)c(NS(=O)(=O)c2cccs2)c1` [methyl 4-{[(1-methyl-3-oxo-1,3-dihydro-2,1-benzisothiazol-5-yl)sulfonyl]amino}-3-[(2-thienylsulfonyl)amino]benzoate] were 0% and above 8300 nM.
Regarding `COC(=O)c1ccc(NS(=O)(=O)c2cccs2)c(NS(=O)(=O)c2ccc3c(c2)c(=O)sn3C)c1` [methyl 3-{[(1-methyl-3-oxo-1,3-dihydro-2,1-benzisothiazol-5-yl)sulfonyl]amino}-4-[(2-thienylsulfonyl)amino]benzoate], the “CCR2 % ANTAG” value was found to be 76% and the IC50 worked out at 2410 nM.
Taken in the same sequence, the figures for `Cn1sc(=O)c2cc(S(=O)(=O)Nc3cc(Cl)c(Cl)cc3NS(=O)(=O)c3ccc(Cl)c(C(F)(F)F)c3)ccc21` [N-[4,5-dichloro-2-({[4-chloro-3-(trifluoromethyl)phenyl]sulfonyl}amino)phenyl]-1-methyl-3-oxo-1,3-dihydro-2,1-benzisothiazole-5-sulfonamide] were 84% and 529 nM.
With `CCc1ccc(NS(=O)(=O)c2cccs2)c(NS(=O)(=O)c2ccc3c(c2)c(=O)sn3C)c1` [N-{5-ethyl-2-[(2-thienylsulfonyl)amino]phenyl}-1-methyl-3-oxo-1,3-dihydro-2,1-benzisothiazole-5-sulfonamide], the “CCR2 % ANTAG” value turned out to be 94% and the IC50 was 1940 nM.
Taken in the same sequence, the figures for `Cc1ccc(NS(=O)(=O)c2ccc3c(c2)c(=O)sn3C)c(NS(=O)(=O)c2cccs2)c1` [1-methyl-N-{4-methyl-2-[(2-thienylsulfonyl)amino]phenyl}-3-oxo-1,3-dihydro-2,1-benzisothiazole-5-sulfonamide] were 99% and 563 nM.
Taken in the same sequence, the figures for `Cc1ccc(S(=O)(=O)Nc2ccc(Cl)cc2NS(=O)(=O)c2ccc3c(c2)c(=O)sn3C)cc1` [N-(5-chloro-2-{[(4-methylphenyl)sulfonyl]amino}phenyl)-1-methyl-3-oxo-1,3-dihydro-2,1-benzisothiazole-5-sulfonamide] were 95% and 680 nM.
Taken in the same sequence, the figures for `CSc1cccc(NS(=O)(=O)c2ccc3c(c2)c(=O)sn3C)c1` [1-methyl-N-[3-(methylthio)phenyl]-3-oxo-1,3-dihydro-2,1-benzisothiazole-5-sulfonamide] were 86% and 1190 nM.
In the case of `Cn1sc(=O)c2cc(S(=O)(=O)Nc3ccccc3NS(=O)(=O)c3ccco3)ccc21` [N-{2-[(2-furylsulfonyl)amino]phenyl}-1-methyl-3-oxo-1,3-dihydro-2,1-benzisothiazole-5-sulfonamide], the “CCR2 % ANTAG” value is recorded as 104% and the IC50 is 744 nM.
Taken in the same sequence, the figures for `COc1cc(Cl)c(C)cc1NS(=O)(=O)c1ccc2c(c1)c(=O)sn2C` [N-(4-chloro-2-methoxy-5-methylphenyl)-1-methyl-3-oxo-1,3-dihydro-2,1-benzisothiazole-5-sulfonamide] were 0% and above 8300 nM.
Taken in the same sequence, the figures for `Cc1cc(NS(=O)(=O)c2ccc3c(c2)c(=O)sn3C)c(C)cc1Cl` [N-(4-chloro-2,5-dimethylphenyl)-1-methyl-3-oxo-1,3-dihydro-2,1-benzisothiazole-5-sulfonamide] were 80% and 1850 nM.
Taken in the same sequence, the figures for `COc1ccc(S(=O)(=O)Nc2ccc(Cl)cc2NS(=O)(=O)c2ccc3c(c2)c(=O)sn3C)c(OC)c1` [N-(5-chloro-2-{[(2,4-dimethoxyphenyl)sulfonyl]amino}phenyl)-1-methyl-3-oxo-1,3-dihydro-2,1-benzisothiazole-5-sulfonamide] were 95% and 1680 nM.
With `Cn1sc(=O)c2cc(S(=O)(=O)N[C@@H]3CCCC[C@H]3NS(=O)(=O)c3ccc(Cl)c(C(F)(F)F)c3)ccc21` (relative stereo) [rel-N-[(1R,2R)-2-({[4-chloro-3-(trifluoromethyl)phenyl]sulfonyl}amino)cyclohexyl]-1-methyl-3-oxo-1,3-dihydro-2,1-benzisothiazole-5-sulfonamide], the “CCR2 % ANTAG” value is given as 96% and the IC50 is 543 nM.
Taken in the same sequence, the figures for `Cn1sc(=O)c2cc(S(=O)(=O)Nc3ccccc3NS(=O)(=O)c3ccc(C(F)(F)F)cc3)ccc21` [1-methyl-3-oxo-N-[2-({[4-(trifluoromethyl)phenyl]sulfonyl}amino)phenyl]-1,3-dihydro-2,1-benzisothiazole-5-sulfonamide] were 24% and 606 nM.
Taken in the same sequence, the figures for `CC(C)c1ccc(NS(=O)(=O)c2ccc3c(c2)c(=O)sn3C)c(NS(=O)(=O)c2cccs2)c1` [N-{4-isopropyl-2-[(2-thienylsulfonyl)amino]phenyl}-1-methyl-3-oxo-1,3-dihydro-2,1-benzisothiazole-5-sulfonamide] were 87% and 886 nM.
Taken in the same sequence, the figures for `Cc1cc(NS(=O)(=O)c2cccs2)c(NS(=O)(=O)c2ccc3c(c2)c(=O)sn3C)cc1Cl` [N-{5-chloro-4-methyl-2-[(2-thienylsulfonyl)amino]phenyl}-1-methyl-3-oxo-1,3-dihydro-2,1-benzisothiazole-5-sulfonamide] were 91% and 531 nM.
Turning to `COc1ccc(S(=O)(=O)Nc2ccccc2NS(=O)(=O)c2ccc3c(c2)c(=O)sn3C)cc1` [N-(2-{[(4-methoxyphenyl)sulfonyl]amino}phenyl)-1-methyl-3-oxo-1,3-dihydro-2,1-benzisothiazole-5-sulfonamide], the “CCR2 % ANTAG” value came to 67% and the IC50 amounted to 2450 nM.
Consider `Cn1sc(=O)c2cc(C(=O)Nc3cc(Cl)ccc3NS(=O)(=O)c3cccs3)ccc21` [N-{5-chloro-2-[(2-thienylsulfonyl)amino]phenyl}-1-methyl-3-oxo-1,3-dihydro-2,1-benzisothiazole-5-carboxamide], for which the “CCR2 % ANTAG” value is 99%.
On the same count and under the same terms, to `COc1cccc(NS(=O)(=O)c2ccc3c(c2)c(=O)sn3C)c1NS(=O)(=O)c1cccs1` [N-{3-methoxy-2-[(2-thienylsulfonyl)amino]phenyl}-1-methyl-3-oxo-1,3-dihydro-2,1-benzisothiazole-5-sulfonamide] belongs 52%.
Still for that read-out and setting: to `Cn1sc(=O)c2cc(S(=O)(=O)Nc3ccccc3NS(=O)(=O)c3cccnc3)ccc21` [1-methyl-3-oxo-N-{2-[(pyridin-3-ylsulfonyl)amino]phenyl}-1,3-dihydro-2,1-benzisothiazole-5-sulfonamide] belongs 77%.
Regarding `Cn1sc(=O)c2cc(S(=O)(=O)Nc3cccc(NS(=O)(=O)c4cccs4)c3)ccc21` [1-methyl-3-oxo-N-{3-[(2-thienylsulfonyl)amino]phenyl}-1,3-dihydro-2,1-benzisothiazole-5-sulfonamide], the “CCR2 % ANTAG” value is 23% and the half-inhibitory concentration (IC50) was 2870 nM.
Taken in the same sequence, the figures for `CC(C)n1sc(=O)c2cc(S(=O)(=O)Nc3ccccc3NS(=O)(=O)c3cccs3)ccc21` [1-isopropyl-3-oxo-N-{2-[(2-thienylsulfonyl)amino]phenyl}-1,3-dihydro-2,1-benzisothiazole-5-sulfonamide] were 90% and 4320 nM.
Taken in the same sequence, the figures for `Cn1sc(=O)c2cc(S(=O)(=O)Nc3cccc4c3OC(F)(F)O4)ccc21` [N-(2,2-difluoro-1,3-benzodioxol-4-yl)-1-methyl-3-oxo-1,3-dihydro-2,1-benzisothiazole-5-sulfonamide] were 80% and 1000 nM.
Taken in the same sequence, the figures for `COc1cccc(S(=O)(=O)Nc2cc(Cl)c(Cl)cc2NS(=O)(=O)c2ccc3c(c2)c(=O)sn3C)c1` [N-(4,5-dichloro-2-{[(3-methoxyphenyl)sulfonyl]amino}phenyl)-1-methyl-3-oxo-1,3-dihydro-2,1-benzisothiazole-5-sulfonamide] were 92% and 651 nM.
Take `Cn1sc(=O)c2cc(S(=O)(=O)Nc3cc(Cl)cnc3C(=O)N3CCC(=O)CC3)ccc21` [N-{5-chloro-2-[(4-oxopiperidin-1-yl)carbonyl]pyridin-3-yl}-1-methyl-3-oxo-1,3-dihydro-2,1-benzisothiazole-5-sulfonamide]: the “CCR2 % ANTAG” value was determined as 58%.
